These results are taken from US20230381321A1, “CAMPTOTHECIN CONJUGATES” (priority 2022, published 2023).

Molecules are shown by their SMILES. Read-outs that look alike come from different tables or passages of the source.

Common to all, as to type: cell-based
For assay [1], the system named is renal carcinoma cells (786-O). Kind of assay: In vitro potency (CellTiter-Glo, 96 h) on 786-O. Conditions: Homo sapiens, 786-0, 96 h, read-out: 786-O IC50. In a few lines:
(§1)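 Steps: plate log-phase cells in RPMI 1640/20% FBS; after 24 h add […] serial dilutions; incubate 4 days; measure luminescence to derive growth inhibition. All lines were STR-profiled and cultured no longer than 2 months.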
On the technique in general: Cellular ATP, detected with luciferase, serves as a proxy for viable cell number.

A further assay relates to melanoma cells (A2058). The assay can be described thus: In vitro potency (CellTiter-Glo, 96 h) on A2058. Conditions: Homo sapiens, A2058, 96 h, read-out: A2058 IC50. In a few lines:
as §1

Assay [2] concerns pancreatic cancer cells (BxPC3). Kind of assay: In vitro potency (CellTiter-Glo, 96 h) on BxPC3. Conditions: Homo sapiens, BXPC-3, 96 h, read-out: BxPC3 IC50. In a few lines: as §1
The test system of assay [3] is non-small-cell lung cancer cells (Calu1). The assay can be described thus: In vitro potency (CellTiter-Glo, 96 h) on Calu1. Conditions: Homo sapiens, Calu-1, 96 h, read-out: Calu1 IC50. In a few lines:
as §1

For assay [4], the system named is anaplastic large cell lymphoma cells (DEL). The assay can be described thus: In vitro potency (CellTiter-Glo, 96 h) on DEL. Conditions: 96 h, read-out: DEL IC50. In a few lines:
as §1

In assay [5] the test system is anaplastic large cell lymphoma cells (DELBVR). Kind of assay: In vitro potency (CellTiter-Glo, 96 h) on DELBVR. Conditions: 96 h, read-out: DELBVR IC50. The procedure, abridged:
as §1

In assay [6] the test system is anaplastic large cell lymphoma cells (Karpas299). The assay can be described thus: In vitro potency (CellTiter-Glo, 96 h) on Karpas299. Conditions: Homo sapiens, KARPAS-299, 96 h, read-out: Karpas299 IC50. The procedure, abridged: as §1
The test system of assay [7] is Hodgkin's lymphoma cells (L540cy). The assay can be described thus: In vitro potency (CellTiter-Glo, 96 h) on L540cy. Conditions: L540cy, 96 h, read-out: L540cy IC50. The procedure, abridged: as §1
Assay [8] can be described thus: In vitro potency (CellTiter-Glo, 96 h) on Ls174T. Conditions: Homo sapiens, LS174T, read-out: Ls174T IC50. The procedure, abridged: as §1
Assay [9] concerns breast cancer cells (MDA-MB-231). The assay can be described thus: In vitro potency (CellTiter-Glo, 96 h) on MDA-MB-231. Conditions: read-out: MDAMB 231 IC50. The procedure, abridged:
as §1

Assay [10] has as its system acute myeloid leukemia cells (MOLM-13). Kind of assay: In vitro potency (CellTiter-Glo, 96 h) on MOLM-13. Conditions: read-out: MOLM-13 IC50. The procedure, abridged: as §1
The subject of assay [11] is B-lymphocyte cancer cells (SU-DHL4). Kind of assay: In vitro potency (CellTiter-Glo, 96 h) on SU-DHL4. Conditions: Homo sapiens, SU-DHL-4, 96 h, read-out: SU-DHL-4 IC50. The procedure, abridged:
as §1

The mark [12] stands for this setting: CPT free drugs, CellTiter-Glo after 96 h exposure.
[13] abbreviates: Homo sapiens, MDA-MB-231, 96 h, CPT free drugs, CellTiter-Glo after 96 h exposure.
[14] abbreviates: Homo sapiens, MOLM-13, 96 h, CPT free drugs, CellTiter-Glo after 96 h exposure.

As a reminder, the IC50 is the concentration at which inhibition is half-maximal. Regarding `CC[C@@]1(O)C(=O)OCc2c1cc1n(c2=O)Cc2c-1nc1cc3c(cc1c2Cn1ccnc1)OCO3` [Compound 7ai], the IC50 stood at 12 nM in assay [1] (setting [12]); 3 nM in the assay with melanoma cells (A2058) (setting [12]); 17 nM in assay [2] (setting [12]); 81 nM in [3] (setting [12]); 1 nM in assay [4] (setting [12]); 3 nM in assay [5] (setting [12]). Further, the IC50 in [6] (setting [12]) worked out at 6 nM; in assay [7] (setting [12]) it was 4 nM; in assay [8] (setting [12]), 8 nM; in assay [9] (setting [13]), 52 nM; in [10] (setting [14]) it was 9 nM; in assay [11] (setting [12]), 3 nM.

As for `CC[C@@]1(O)C(=O)OCc2c1cc1n(c2=O)Cc2c-1nc1cc3c(cc1c2Cn1cnc(CO)c1)OCO3` [Compound 7aj], the IC50 is 99 nM in assay [1]; 57 nM with melanoma cells (A2058); 103 nM in assay [2]; > 1000 nM in assay [3]; 14 nM in assay [4]; 16 nM in assay [5]. Moreover, the IC50 in [6] is 55 nM; in assay [7], 56 nM; in assay [8] (96 h) it was 64 nM; in [9] (Homo sapiens, MDA-MB-231, 96 h), 706 nM; in assay [10] (Homo sapiens, MOLM-13, 96 h), 81 nM; in assay [11], 34 nM.

Consider `CCc1c(C)c(F)cc2nc3c(c(CN)c12)Cn1c-3cc2c(c1=O)COC(=O)[C@]2(O)CC` [Compound 10, (S)-11-(aminomethyl)-4,10-diethyl-8-fluoro-4-hydroxy-9-methyl-1,12-dihydro-14H-pyrano[3′,4′:6,7]indolizino[1,2-b]quinoline-3,14(4H)-dione], for which the IC50 is 54 nM in assay [1]; 33 nM with melanoma cells (A2058); 64 nM in assay [2]; 95 nM in assay [3]; 7 nM in assay [4]; 15 nM in assay [5]. Also, the IC50 turned out to be 57 nM in assay [6]; 51 nM in [7]; 33 nM in [8] (96 h); 59 nM in [9] (Homo sapiens, MDA-MB-231, 96 h); 149 nM in [10] (Homo sapiens, MOLM-13, 96 h); 15 nM in assay [11].

On to `CC[C@@]1(O)C(=O)OCc2c1cc1n(c2=O)Cc2c-1nc1cc3c(cc1c2CN)C(C)CO3` (stereo partly drawn) [Compound 11, (5S)-14-(aminomethyl)-5-ethyl-5-hydroxy-18-methyl-7,20-dioxa-11,24 diazahexacyclo[11.11.0.02,11.04,9.015,23.017,21]tetracosa-1(24),2,4(9),13,15(23),16,21-heptaene-6,10-dione], for which the IC50 is 8 nM in assay [1] (setting [12]); 3 nM in the assay with melanoma cells (A2058) (setting [12]); 12 nM in assay [2] (setting [12]); 69 nM in assay [3] (setting [12]); 1 nM in assay [4] (setting [12]); 2 nM in assay [5] (setting [12]). Besides, the IC50 in assay [6] (setting [12]) was 14 nM; in assay [7] (setting [12]) it was 4 nM; in assay [8] (setting [12]), > 1000 nM; in assay [9] (setting [12]) it was 41 nM; in [10] (setting [12]), 108 nM; in assay [11] (setting [12]), 4 nM.

Turning to `C=Cc1ccc2nc3c(c(CN)c2c1)Cn1c-3cc2c(c1=O)COC(=O)[C@]2(O)CC` [Compound 33, (19S)-10-(aminomethyl)-19-ethyl-19-hydroxy-7-vinyl-17-oxa-3,13-diazapentacyclo[11.8.0.02,11.04,9.015,20]henicosa-1(21),2,4,6,8,10,15(20)-heptaene-14,18-dione], the IC50 in assay [1] (setting [12]) was determined as 10 nM; in the assay with melanoma cells (A2058) (setting [12]) it was 6 nM; in assay [2] (setting [12]) it was 11 nM; in assay [3] (setting [12]) it was 36 nM; in assay [4] (setting [12]) it was 2 nM; in assay [5] (setting [12]), 2 nM. Also, the IC50 in assay [6] (setting [12]) came out at 8 nM; in assay [7] (setting [12]), 4 nM; in [8] (setting [12]), 14 nM; in [9] (setting [13]), 18 nM; in assay [10] (setting [14]), 85 nM; in assay [11] (setting [12]) it was 4 nM.

Regarding `C=C(C)c1ccc2nc3c(c(CN)c2c1)Cn1c-3cc2c(c1=O)COC(=O)[C@]2(O)CC` [Compound 33a], the IC50 was 34 nM in assay [1] (setting [12]); 18 nM in the assay on melanoma cells (A2058) (setting [12]); 50 nM in assay [2] (setting [12]); 120 nM in assay [3] (setting [12]); 7 nM in assay [4] (setting [12]); 12 nM in [5] (setting [12]). Further, the IC50 in assay [6] (setting [12]) was determined as 28 nM; in assay [7] (setting [12]), 21 nM; in assay [8] (setting [12]), 18 nM; in [9] (setting [13]), 36 nM; in assay [10] (setting [14]), 258 nM; in [11] (setting [12]) it was 14 nM.

With `CC[C@@]1(O)C(=O)OCc2c1cc1n(c2=O)Cc2c-1nc1cc3c(cc1c2CO)CCO3` [Compound 35], the IC50 in assay [1] worked out at 4 nM; in the assay on melanoma cells (A2058), 2 nM; in assay [2], 6 nM; in assay [3], 9 nM; in [4], 0.6 nM; in assay [5], 1 nM. The IC50 in assay [6] was 4 nM; in assay [7], 2 nM; in assay [8] (96 h) it was 3 nM; in assay [9] (Homo sapiens, MDA-MB-231, 96 h), 5 nM; in [10] (Homo sapiens, MOLM-13, 96 h), 22 nM; in [11], 1 nM.
